In patent US8022052B2, “Inhibition of PPAR gamma expression by specific osteogenic oxysterols” (The Regents of the University of California, priority 2006, dated 2011):
Entries after “also recorded” stand apart in the source; their conditions may differ. Read-outs that look alike come from different tables or passages of the source.

Legend:
M2 cells = assay: 45Ca incorporation assay measuring mineralization in M2 cells; format: cell-based
Description: One aspect of the invention is an oxysterol (e.g. an isolated oxysterol) of the invention as represented by Formula I, above. For example, the compounds designated as Oxy 7, Oxy 9, Oxy11, Oxy12, Oxy13, Oxy 14, and Oxy 15 can stimulate at least a measurable amount of a hedgehog-mediated pathway and/or osteomorphogenesis or osteoproliferation (or a marker thereof), and/or can inhibit at least a measurable amount of adipocyte morphogenesis or adipocyte proliferation (or a marker thereof). Oxy 3 and Oxy 4 can act as enhancers of activity in combination with other oxysterols.

[1] = tested on: M2-10B4 (M2) murine pluripotent bone MSC line; assay: Tro-induced adipocyte formation in M2 cells, Oil red O staining; format: cell-based, mouse; conditions: for inhibition of Tro-induced adipocyte formation: M2 cells, oxysterol 5 μM
Experimental: (§1) M2 mouse MSCs were purchased from American Type Culture Collection (ATCC, Rockville, Md., USA). […] Cell culture was performed in 24- and 6-well plates for adipogenic differentiation and gene expression studies, respectively, and treatment with test agents was done in growth medium.
Oil red O staining for detection of adipocytes was performed as previously described. […] The number of adipocytes was quantitated by counting Oil red O-positive cells in five separate fields per well, in three wells per experimental condition. The results are reported as the mean of triplicate determination ±SD.
(§2) Adipocyte formation was examined by Oil red O staining. […] PPARγ expression was assessed by RT-qPCR after treating M2 cells with Tro in the presence or absence of 20S. […] M2 cells at confluence were treated with control vehicle, 10 μM Tro, or 5 μM 20S, alone or in combination for 24 hours (FIG. 2A), 48 hours (FIG. 2B), and 96 hours (FIG. 2C). PPARγ mRNA expression was measured by quantitative real-time PCR.
(§3) After 10 days, adipocyte formation was measured by Oil red O staining. The number of adipocytes was determined by counting Oil red O-positive cells in five separate fields per well, in three wells per experimental condition. […] After 48 h, PPARγ mRNA expression was measured by quantitative real-time PCR. […] Luciferase activity was measured after 24 h and normalized for transfection efficiency using the Renilla luciferase activity.
Synthetic oxysterol compounds were studied for inhibition of adipogenesis and PPAR expression. […] After 10 days of treatment, cells were stained with Oil-red-O to detect adipocytes, and the number of positively stained cells was determined using light microscopy. Data from a representative experiment are reported as the mean of triplicate determination (average of five fields per well, 3 wells per experimental condition) ±SD.

PPARγ = PPARγ mRNA expression in M2 cells by RT-qPCR; format: cell-based, mouse; conditions: for reversal of the inhibitory effect of 20S on Tro-induced PPARγ expression: signaling inhibitor
Experimental: as §1
(§4) Total RNA was extracted with the RNA isolation kit from Stratagene (La Jolla, Calif., USA) according to the manufacturer's instructions. RNA was DNase-treated using DNA-free kit from Ambion (Austin, Tex., USA). Three micrograms of RNA was reverse-transcribed using reverse transcriptase from Stratagene to make single-stranded cDNA. The cDNA was mixed with Qi SYBR Green Supermix (Bio-Rad) for quantitative RT-PCR assay using a Bio-Rad I-cycler IQ quantitative thermocycler. All PCR samples were prepared in triplicate wells of a 96-well plate. After 40 cycles of PCR, melt curves were examined to ensure primer specificity. Fold changes in gene expression were calculated using the ΔΔCt method. […] Primers used are as follows: PPARγ2 (5′-[…]-3′ and 5′-[…]-3′), C/EBPα (5′-[…]-3′ and 5′-[…]-3′), ap2 (5′-[…]-3′ and 5′-[…]-3′), LPL (5′-[…]-3′ and 5′-[…]-[…]), GATA2 (5′-[…]-3′ and 5′-[…]-3′), GATA3 (5′-[…]-3′ and 5′-[…]-3′), GILZ (5′-[…]-3′ and 5′-[…]-3′), and pref-1 (5′-[…]-3′ and 5′-[…]-3′).
as §2, §3
After 48 hours of treatment, RNA was extracted from cells and analyzed for PPARγ expression by Q-RT-PCR. Data from a representative experiment, normalized to GAPDH expression, are reported as the mean of triplicate determinations ±SD.

aP2 = aP2 mRNA expression in M2 cells by quantitative real-time PCR; format: cell-based, mouse; conditions: cyclopamine, data not shown
Experimental: . M2 cells at confluence were treated with control vehicle, 10 μM Tro, or 5 μM 20S, alone or in combination for 24 hours (FIG. 4A), 48 hours (FIG. 4B), and 96 hours (FIG. 4C). aP2 mRNA expression was measured by quantitative real-time PCR. Fold changes in gene expression relative to the control were calculated using the ΔΔCt method and reported as the mean of triplicate determination ±SD (p<0.0001 for Tro or Tro+20S vs. control or 20S and p<0.01 for Tro vs. Tro+20S at 24 hours (FIG. 4A); p<0.0001 for Tro or Tro+20S vs. control or 20S and for Tro vs. Tro+20S at 48 hours (FIG. 4B); p<0.0001 for Tro vs. control, 20S, or Tro+20S and p<0.001 for Tro+20S vs. control or 20S at 96 hours (FIG. 4C)).

LPL = conditions: cyclopamine, data not shown
Description: as §4

[2] = tested on: M2-10B4 (M2) murine pluripotent bone MSC line; conditions: cited from earlier work

Molecule: CC[C@H](O)[C@@H](C)C1CCC2C3CC=C4C[C@@H](O)CC[C@]4(C)C3CC[C@@]21C (stereo partly shown) [Oxy 3]
- incorporation of 45Ca in combination with 20(S)-hydroxycholesterol over 20(S)-hydroxycholesterol alone (M2 cells): enhance

Molecule: Cc1cccc(C[C@](C)(O)C2CCC3C4CC=C5C[C@@H](O)CC[C@]5(C)C4CC[C@@]32C)c1 (stereo partly shown) [Oxy11]
- inhibition of Tro-induced adipocyte formation ([1]; 10 μM Tro, 10 days): inhibitory effect

Molecule: C=C(C)CCC[C@](C)(O)C1CCC2C3CC=C4C[C@@H](O)CC[C@]4(C)C3CC[C@@]21C (stereo partly shown) [Oxy13]
- inhibition of Tro-induced adipocyte formation ([1]; 10 μM Tro, 10 days): inhibitory effect
- inhibition of Tro-induced PPARγ mRNA expression (PPARγ; M2 cells, 10 μM Tro, oxysterol 5 μM, 24, 48, 96 h (20S), 48 h (Oxy13)): inhibits

Molecule: CC(C)CCCC[C@](C)(O)C1CCC2C3CC=C4C[C@@H](O)CC[C@]4(C)C3CC[C@@]21C (stereo partly drawn) [Oxy12, (3S,8S,9S,10R,13S,14S,17S)-2,3,4,7,8,9,10,11,12,13,14,15,16,17-tetradecahydro-17-((S)-2-hydroxy-7-methyloctan-2-yl)-10,13-dimethyl-1H-cyclopenta[α]phenanthren-3-ol]
- inhibition of Tro-induced adipocyte formation ([1]; 10 μM Tro, 10 days): inhibitory effect

Molecule: CC1=C2C[C@H]3[C@@H](CC=C4C[C@@H](O)CC[C@@]43C)[C@@H]2CC[C@]12O[C@@H]1C[C@H](C)CN[C@H]1[C@H]2C [cyclopamine]
- reversal of the inhibitory effects of 20S on aP2 expression (aP2): reversed
- reversal of the inhibitory effects of 20S on Tro-induced adipocyte formation [1]: 70%
- reversal of the inhibitory effects of Shh on Tro-induced adipocyte formation [1]: 100%
- reversal of the anti-adipogenic effects of 20S (in words) ([1]; 4 μM cyclopamine 2-h pretreatment, 10 μM Tro, 5 μM 20S, 10 days): reversed; also recorded: blocks; also recorded: did not completely reverse
- reversal of the anti-adipogenic effects of Shh (in words) ([1]; cyclopamine 2-h pretreatment, 10 μM Tro, 200 ng/mL Shh, 10 days): completely reversed; also recorded: blocks
- additional effect on adipocyte formation of increasing the dose of cyclopamine ([1]; cyclopamine from 4 to 8 μM, Tro+20S, data not shown): did not have any additional effect
- reversal of the inhibitory effects of 20S on LPL expression (LPL): reversed
- reversal of the inhibitory effect of 20S on Tro-induced PPARγ mRNA expression (in words) (PPARγ): fully reversed; also recorded: completely abolished; also recorded: blocks; also recorded: completely blocked
- reversal of the inhibitory effect of Shh on Tro-induced PPARγ mRNA expression (in words) (PPARγ): fully reversed; also recorded: completely abolished; also recorded: blocks; also recorded: completely reversed; also recorded: completely blocked

Molecule: CC(C)CC[C@@H](O)[C@@H](C)[C@H]1CC[C@H]2[C@@H]3CC=C4C[C@@H](O)CC[C@]4(C)[C@H]3CC[C@]12C [Oxy 22R, 22(R)-hydroxycholesterol]
- adipogenic differentiation of M2 cells (previously reported) [2]: inhibit

Molecule: CC(C)=CCC[C@](C)(O)C1CCC2C3CC=C4C[C@@H](O)CC[C@]4(C)C3CC[C@@]21C (stereo partly shown) [Oxy14]
- inhibition of Tro-induced adipocyte formation ([1]; 10 μM Tro, 10 days): inhibitory effect

Molecule: COc1cccc(-c2cc(=O)c3ccccc3o2)c1N [PD98059]
- reversal of the inhibitory effects of 20S on Tro-induced adipocyte formation ([1]; 10-day M2 cultures, Cyclopamine 4 μM, Dkk-1 1 μg/mL, PD98059 20 μM): 50%
- reversal of the inhibitory effect of 20S on Tro-induced PPARγ expression (PPARγ; M2 cells): 45%

Molecule: CC(C)CC[C@H](O)[C@@H](C)[C@H]1CC[C@H]2[C@@H]3CC=C4C[C@@H](O)CC[C@]4(C)[C@H]3CC[C@]12C [Oxy 22S, 22(S)-hydroxycholesterol]
- adipogenic differentiation of M2 cells (previously reported) [2]: inhibit

Molecule: CC(C)CC[C@@H](O)[C@](C)(O)C1CCC2C3CC=C4C[C@@H](O)CC[C@]4(C)C3CC[C@@]21C (stereo partly shown) [Oxy16]
- inhibition of Tro-induced adipocyte formation ([1]; 10 μM Tro, 10 days): inhibitory effect

Molecule: C[C@H](O)[C@@H](C)C1CCC2C3CC=C4C[C@@H](O)CC[C@]4(C)C3CC[C@@]21C (stereo partly shown) [Oxy4]
- incorporation of 45Ca in combination with 20(S)-hydroxycholesterol over 20(S)-hydroxycholesterol alone (M2 cells): enhance

B1: Dkk-1: canonical Wnt signaling inhibitor (protein, UniProt O94907 32-266, looked up)
Dickkopf-related protein 1: TLNSVLNSNAIKNLPPPLGGAAGHPGSAVSAAPGILYPGGNKYQTIDNYQPYPCAEDEECGTDEYCASPTRGGDAGVQICLACRKRRKRCMRHAMCCPGNYCKNGICVSSDQNHFRGEIEETITESFGNDHSTLDGYSRRTTLSSKMYHTKGQEGSVCLRSSDCASGLCCARHFWSKICKPVLKEGQVCTKHRRKGSHGLEIFQRCYCGEGLSCRIQKDHHQASNSSRLHTCQRH
- reversal of the inhibitory effect of 20S on Tro-induced PPARγ expression (PPARγ; M2 cells): 10%
